The text below walks through data of patent publication US11549115B2, “Compositions and methods for regulated gene expression” (YALE UNIVERSITY, priority 2017, dated 2023).

The series concerns Bt::tetR P1TDP^GH023-NanoLuc. The series is classed as in vivo, mice. On the procedure: Germ-free Swiss Webster mice were orally gavaged with a mixture of 1×10^8 CFU of each of 14 human gut microbes shown in FIG. 12D and Table 3. With the exception of the reporter strain, all species are sensitive to gentamicin and/or erythromycin (data not shown). Colonization was allowed to stabilize for at least 7 days prior to the start of the experiment. Fecal pellets were collected daily, and mice were given aTC (100 μg/mL) in the drinking water for 48 hours after stool collection on Day 3. Fecal samples were homogenized, and fibrous/insoluble matter removed as described above. From the supernatant, 200 μL was stored for DNA purification as previously described (Goodman, A. L. et al., 2011, Nat. Protoc., 6:1969-1980) and subsequent qPCR analysis (described below), 10 μL was used for CFU determination of the reporter strain by plating dilutions on BHI-blood agar plates containing gentamicin and erythromycin, and 500 μL was used for luminescence measurements (described below).
At each time point, abundance of each species was assessed by qPCR from fecal DNA using strain specific primers described previously (Cullen, T. W. et al., 2015, Science, 347:170-175). qPCR was performed as described (Goodman, A. L. et al., 2009, Cell Host and Microbe, 6:279-289; Martens, E. C. et al., 2008, Cell Host and Microbe, 4:447-457) using a CFX96 instrument (BioRad) and SYBR FAST universal master mix (KAPA Biosystems). Mean strain quantities were calculated using a standard curve.
The 500 μL collected from the resuspended fecal supernatant was centrifuged at 21,130×g for 3 minutes to pellet bacterial cells, which were then resuspended in 50 μL 1× BugBuster (Novagen) in 1×PBS and lysed by one round of freeze-thaw and 10 minutes of nutation at 26° C. Samples were centrifuged at 21,130×g for 10 minutes at 4° C., and 10 μL of the supernatant was mixed with an equal volume of NanoLuc Reaction Buffer to induce luminescence production. Luminescence was measured after a 5 minute incubation at 26° C. on a plate reader (BioTek Synergy H1) with an integration time of 1 second at a gain setting of 100. […]

Structures are written as SMILES.

Turning to `Cc1c2c(c(O)c3c(O)cccc13)C(=O)[C@]1(O)C(=O)C(C(N)=O)=C(O)[C@@H](N(C)C)[C@@H]1C2` [aTC, Anhydrotetracycline], the “complete repression after removal of the inducer” value (14-species community) fell in the range of 7 to 9 days. Further, the “increase of luminescence in fecal pellets” value (14-species community, within 24 hours of 100 μg/mL aTC) was ~4,500 fold. Also, under “alpha and beta diversity, 19-day experiment”, the “impact on community structure” value is reported as “did not impact community structure”.
